Assay [1] concerns the target TANK binding kinase (TBK1) (Homo sapiens (Human), UniProt Q9UHD2). The experiment in a line: TBK1 enzyme assay (384-well Flashplate kinase assay). The class given is biochemical. Conditions: 10 μM ATP, 120 Min at 30° C. As for the experimental part: The kinase assay is performed as 384-well Flashplate assay (for e.g. Topcount measurement. 0.6 nM TANK binding kinase (TBK1), 800 nM biotinylated MELK-derived peptide (Biotin-Ah-Ah-[…]) SEQ ID NO: 2 and 10 μM ATP (spiked with 0.25 μCi ^33P-ATP/well) are incubated in a total volume of 50 μl (10 mM MOPS, 10 mM Mg-acetat, 0.1 mM EGTA, 1 mM DTT, 0.02% Brij35, 0.1% BSA, pH 7.5) with or without test compound for 120 Min at 30° C. The reaction is stopped with 25 μl 200 mM EDTA. After 30 Min at room temperature the liquid is removed and each well washed thrice with 100 μl 0.9% sodium chloride solution. Nonspecific reaction is determined in presence of 100 nM Staurosporine. Radioactivity is measured in a Topcount (PerkinElmer). Results (e.g. IC50-values) are calculated with program tools provided by the IT-department (e.g. AssayExplorer, Symyx).

The target in assay [2] is IKKε (Homo sapiens (Human), UniProt Q14164). As to the kind of experiment: IKKε kinase assay (384-well Flashplate). The class given is biochemical. Conditions: 10 μM ATP, 2 hours at 30° C.; read-out: IKKε enzyme assay IC50. As for the experimental part: IKKε—Kinase Assay (IKKepsilon)
IKKε, sequence (Q14164 whole entry): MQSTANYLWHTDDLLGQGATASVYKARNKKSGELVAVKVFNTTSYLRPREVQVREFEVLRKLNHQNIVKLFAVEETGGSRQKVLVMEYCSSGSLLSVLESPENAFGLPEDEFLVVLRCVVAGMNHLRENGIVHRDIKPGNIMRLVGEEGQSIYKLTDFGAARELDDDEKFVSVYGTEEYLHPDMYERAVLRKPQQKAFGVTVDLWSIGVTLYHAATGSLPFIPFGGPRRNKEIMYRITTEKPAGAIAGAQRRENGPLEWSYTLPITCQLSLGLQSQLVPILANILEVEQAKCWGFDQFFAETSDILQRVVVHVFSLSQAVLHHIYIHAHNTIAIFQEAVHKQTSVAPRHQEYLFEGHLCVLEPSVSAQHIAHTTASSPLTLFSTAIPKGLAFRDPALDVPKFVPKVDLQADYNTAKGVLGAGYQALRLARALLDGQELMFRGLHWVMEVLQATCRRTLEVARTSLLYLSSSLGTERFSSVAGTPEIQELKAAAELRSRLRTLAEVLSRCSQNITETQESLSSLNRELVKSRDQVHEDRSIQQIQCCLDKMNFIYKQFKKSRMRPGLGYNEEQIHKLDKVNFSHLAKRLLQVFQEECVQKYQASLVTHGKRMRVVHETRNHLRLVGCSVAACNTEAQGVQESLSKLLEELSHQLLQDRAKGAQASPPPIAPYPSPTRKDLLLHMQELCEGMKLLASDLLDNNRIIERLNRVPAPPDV
The kinase assay is performed either as 384-well Flashplate assay (for e.g. Topcount measurement). 1 nM IKKε, 800 nM biotinylated IκBα(19-42) peptide (Biotin-C6-C6-[…]) SEQ ID NO: 1 and 10 μM ATP (spiked with 0.3 μCi ^33P-ATP/well) are incubated in a total volume of 50 μl (10 mM MOPS, 10 mM Mg-acetat, 0.1 mM EGTA, 1 mM Dithiothreitol,0.02% Brij35, 0.1% BSA, 0.1% BioStab, pH 7.5) with or without test compound for 2 hours at 30° C. The reaction is stopped with 25 μl 200 mM EDTA. After 30 Min at room temperature the liquid is removed and each well washed thrice with 100 μl 0.9% sodium chloride solution. Non-specific reaction is determined in presence of 3 μM MSC2119074 (BX-795). Radioactivity is measured with Topcount (PerkinElmer). Results (e.g. IC50-values) are calculated with program tools provided by the IT-department (e.g. AssayExplorer, Symyx).

Drawing on patent US9273029B2, “Pyridine-and pyrazine derivatives” (Merck Patent GmbH, priority 2011, dated 2016), this text covers IC50 for 15 compounds.

TANK binding kinase (TBK1), sequence (Q9UHD2 whole entry): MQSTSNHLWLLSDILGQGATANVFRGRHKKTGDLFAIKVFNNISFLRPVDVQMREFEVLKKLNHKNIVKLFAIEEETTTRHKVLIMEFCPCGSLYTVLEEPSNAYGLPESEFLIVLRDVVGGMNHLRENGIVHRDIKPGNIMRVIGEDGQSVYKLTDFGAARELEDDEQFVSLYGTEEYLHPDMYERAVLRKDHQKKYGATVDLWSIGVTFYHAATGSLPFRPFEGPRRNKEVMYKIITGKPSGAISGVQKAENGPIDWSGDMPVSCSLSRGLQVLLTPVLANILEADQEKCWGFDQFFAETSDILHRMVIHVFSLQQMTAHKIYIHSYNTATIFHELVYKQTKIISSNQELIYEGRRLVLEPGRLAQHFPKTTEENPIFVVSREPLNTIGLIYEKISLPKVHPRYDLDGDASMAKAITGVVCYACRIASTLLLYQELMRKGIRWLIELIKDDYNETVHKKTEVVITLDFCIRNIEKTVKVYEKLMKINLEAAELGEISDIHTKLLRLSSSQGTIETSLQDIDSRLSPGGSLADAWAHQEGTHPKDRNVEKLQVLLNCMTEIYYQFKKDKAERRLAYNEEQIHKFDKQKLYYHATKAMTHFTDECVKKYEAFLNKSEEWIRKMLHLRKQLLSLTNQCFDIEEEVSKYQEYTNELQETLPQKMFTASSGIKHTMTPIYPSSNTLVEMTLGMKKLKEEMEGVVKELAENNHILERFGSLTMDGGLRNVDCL

One may read the IC50 as the concentration at which inhibition is half-maximal. As to `Nc1ncc(-c2ccc(CN3CCCC3)s2)cc1C(=O)Nc1ccncc1` [Compound A2, 2-Amino-N-pyridin-4-yl-5-(5-pyrrolidin-1-ylmethyl-thiophen-2-yl)-nicotinamide], the IC50 in assay [1] is 130 nM; in assay [2], 110 nM.
The matching figures for `Cc1ccc(-c2cnc(N)c(C(=O)Nc3ccncc3)c2)s1` [Compound A3, 2-Amino-5-(5-methyl-thiophen-2-yl)-N-pyridin-4-yl-nicotinamide]: 120 nM and 150 nM.
Consider `Nc1ncc(-c2ccc(S(N)(=O)=O)cc2)cc1C(=O)Nc1ccncc1` [Compound A7, 2-Amino-N-pyridin-4-yl-5-(4-sulfamoyl-phenyl)-nicotinamide], for which the values for the IC50 in assay [1] and in assay [2] were 150 nM and 1800 nM, respectively.
`Nc1ncc(-c2ccc(CN3CCOCC3)s2)nc1C(=O)Nc1ccncc1` [Compound A10, 3-Amino-6-(5-morpholin-4-ylmethyl-thiophen-2-yl)-pyrazine-2-carboxylic acid pyridin-4-ylamide]: the IC50 in assay [1] worked out at 1000 nM.
On to `Nc1ncc(-c2cnn(CC3OCCO3)c2)nc1C(=O)Nc1ccncc1` [Compound A12, 3-Amino-6-(1-[1,3]dioxolan-2-ylmethyl-1H-pyrazol-4-yl)-pyrazine-2-carboxylic acid pyridin-4-ylamide], for which the IC50 in assay [1] worked out at 8300 nM; in assay [2] it was 1000 nM.
For the compound `Nc1ncc(-c2ccc(CN3CCCCC3)s2)nc1C(=O)Nc1ccncc1` [Compound A13, 3-Amino-6-(5-piperidin-1-ylmethyl-thiophen-2-yl)-pyrazine-2-carboxylic acid pyridin-4-ylamide], the IC50 was 4000 nM in assay [1] and 1900 nM in assay [2].
The matching figures for `Nc1ncc(-c2ccc(CN3CCCC3)s2)nc1C(=O)Nc1ccncc1` [Compound A14, 3-Amino-6-(5-pyrrolidin-1-ylmethyl-thiophen-2-yl)-pyrazine-2-carboxylic acid pyridin-4-ylamide]: 4200 nM and 1900 nM.
Take `Cc1cc(NC(=O)c2cc(-c3csc(CN4CCOCC4)c3)cnc2N)ccn1` [Compound A15, 2-Amino-N-(2-methyl-pyridin-4-yl)-5-(5-morpholin-4-ylmethyl-thiophen-3-yl)-nicotinamide]: the IC50 in assay [1] was found to be 670 nM; in assay [2], 2000 nM.
As for `Nc1ncc(-c2cccc(-n3cccn3)c2)cc1C(=O)Nc1ccnnc1` [Compound A18, 2-Amino-5-(3-pyrazol-1-yl-phenyl)-N-pyridazin-4-yl-nicotinamide], the IC50 came to 790 nM in assay [1] and 640 nM in assay [2].
In the case of `Cc1cnccc1NC(=O)c1cc(-c2ccc(-n3cccn3)cc2)cnc1N` [Compound A19, 2-Amino-N-(3-methyl-pyridin-4-yl)-5-(4-pyrazol-1-yl-phenyl)-nicotinamide], the IC50 turned out to be 1000 nM in assay [1] and 2800 nM in assay [2].
With `COCCn1cc(-c2cnc(N)c(C(=O)Nc3ccnc(C)c3)c2)cn1` [Compound A20, 2-Amino-5-[1-(2-methoxy-ethyl)-1H-pyrazol-4-yl]-N-(2-methyl-pyridine-4-yl)-nicotinamide], the figures for the IC50 in assay [1] and in assay [2] were 1200 nM and 610 nM, respectively.
As for `COC(=O)c1cnccc1NC(=O)c1cc(-c2ccc(CN3CCOCC3)s2)cnc1N` [Compound A35, 4-{[2-Amino-5-(5-morpholin-4-ylmethyl-thiophen-2-yl)-pyridine-3-carbonyl]-amino}-nicotinic acid methyl ester], the IC50 in assay [1] was found to be 450 nM.
`Cn1cccc1-c1cnc(N)c(C(=O)Nc2ccncc2)c1` [Compound A50, 2-Amino-5-(1-methyl-1H-pyrrol-2-yl)-N-pyridin-4-yl-nicotinamide] registered an IC50 in assay [1] of 320 nM.
`Nc1ncc(-c2cc3ccccc3s2)cc1C(=O)Nc1ccncc1` [Compound A52, 2-Amino-5-benzo[b]thiophen-2-yl-N-pyridin-4-yl-nicotinamide] had an IC50 in assay [1] of 630 nM.
The compound `Nc1ncc(-c2cc3ccccc3[nH]2)cc1C(=O)Nc1ccncc1` [Compound A55, 2-Amino-5-(1H-indol-2-yl)-N-pyridin-4-yl-nicotinamide] yielded an IC50 in assay [1] of 390 nM.
